Assay results from US9149038B2, “4-amino-6-(heterocyclic)picolinates and 6-amino-2-(heterocyclic)pyrimidine-4-carboxylates and their use as herbicides” (Dow AgroSciences LLC, priority 2013, dated 2015).
Read-outs that look alike come from different tables or passages of the source.

What was measured:
[1] = system: Key Broadleaf Weed and Crop Species; assay: Post-Emergent Test II: postemergent herbicidal activity, visual rating after 14 d (Table 7); format: in vivo; settings: post-emergence, 336 h; for pest or weed control at 35 g/ha: 35 g ai/ha; for pest or weed control at 70 g/ha: 70 g ai/ha; for pest or weed control at 140 g/ha: 140 g ai/ha
How it was run: (§1)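 Track-sprayed young seedlings (first/second true leaf) at 187 L/ha across a 2-fold rate series from the high rate down to 1/16×. Kept in greenhouse at 23-29° C day, subirrigated. Injury rated by eye after 14 d, 0 = no injury, 100 = complete kill.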

[2] = system: Key Grass and Sedge Weeds as well as Grass Crops; assay: Post-Emergent Test II: postemergent herbicidal activity, visual rating after 14 d (Table 8); format: in vivo; settings: post-emergence, 336 h; for pest or weed control at 35 g/ha: 35 g ai/ha; for pest or weed control at 70 g/ha: 70 g ai/ha; for pest or weed control at 140 g/ha: 140 g ai/ha
How it was run: as §1

[3] = lambsquarters (Chenopodium album), read-out: Visual Growth Reduction (%) 14 Days After Application CHEAL
[4] = oilseed rape, canola (Brassica napus), read-out: Visual Growth Reduction (%) 14 Days After Application BRSNN
[5] = redroot pigweed (Amaranthus retroflexus), read-out: Visual Growth Reduction (%) 14 Days After Application AMARE
[6] = sunflower (Helianthus annuus), read-out: Visual Growth Reduction (%) 14 Days After Application HELAN
[7] = velvetleaf (Abutilon theophrasti), read-out: Visual Growth Reduction (%) 14 Days After Application ABUTH
[8] = wild poinsettia (Euphorbia heterophylla), read-out: Visual Growth Reduction (%) 14 Days After Application EPHHL
[9] = barnyardgrass (Echinochloa crus-galli), read-out: Visual Growth Reduction (%) 14 Days After Application ECHCG
[10] = giant foxtail (Setaria faberi), read-out: Visual Growth Reduction (%) 14 Days After Application SETFA
[11] = maize, corn (Zea mays), read-out: Visual Growth Reduction (%) 14 Days After Application ZEAMX
[12] = rice (Oryza sativa), read-out: Visual Growth Reduction (%) 14 Days After Application ORYSA
[13] = wheat, spring (Triticum aestivum), read-out: Visual Growth Reduction (%) 14 Days After Application TRZAS
[14] = yellow nutsedge (Cyperus esculentus), read-out: Visual Growth Reduction (%) 14 Days After Application CYPES

For `COC(=O)c1nc(-c2ccc3c(c2)OC(F)(F)O3)c(F)c(N)c1Cl` [Compound 6], the pest or weed control at 35 g/ha [1, 3] was 95 to 100%, the pest or weed control at 70 g/ha [1, 3] was 95 to 100% and the pest or weed control at 140 g/ha [1, 3] was 95 to 100%. It also gave a pest or weed control at 35 g/ha [1, 4] of 75 to 84%, a pest or weed control at 70 g/ha [1, 4] of 85 to 94% and a pest or weed control at 140 g/ha [1, 4] of 85 to 94%. The pest or weed control at 35 g/ha [1, 5] was 75 to 84%, the pest or weed control at 70 g/ha [1, 5] was 75 to 84% and the pest or weed control at 140 g/ha [1, 5] was 95 to 100%. It also gave a pest or weed control at 35 g/ha [1, 6] of 85 to 94%, a pest or weed control at 70 g/ha [1, 6] of 85 to 94% and a pest or weed control at 140 g/ha [1, 6] of 95 to 100%. The pest or weed control at 35 g/ha [1, 7] was 95 to 100%, the pest or weed control at 70 g/ha [1, 7] was 95 to 100% and the pest or weed control at 140 g/ha [1, 7] was 95 to 100%. It also gave a pest or weed control at 35 g/ha [1, 8] of 85 to 94%, a pest or weed control at 70 g/ha [1, 8] of 85 to 94% and a pest or weed control at 140 g/ha [1, 8] of 95 to 100%. It also gave a pest or weed control at 35 g/ha [2, 9] of 95 to 100%, a pest or weed control at 70 g/ha [2, 9] of 95 to 100% and a pest or weed control at 140 g/ha [2, 9] of 95 to 100%. It also gave a pest or weed control at 35 g/ha [2, 10] of 60 to 74%, a pest or weed control at 70 g/ha [2, 10] of 75 to 84% and a pest or weed control at 140 g/ha [2, 10] of 85 to 94%. It also gave a pest or weed control at 35 g/ha [2, 11] of 85 to 94%, a pest or weed control at 70 g/ha [2, 11] of 85 to 94% and a pest or weed control at 140 g/ha [2, 11] of 85 to 94%. For the same compound, the pest or weed control at 35 g/ha [2, 12] was 30 to 44%, the pest or weed control at 70 g/ha [2, 12] was 45 to 59% and the pest or weed control at 140 g/ha [2, 12] was 45 to 59%. For the same compound, the pest or weed control at 35 g/ha [2, 13] was 45 to 59%, the pest or weed control at 70 g/ha [2, 13] was 60 to 74% and the pest or weed control at 140 g/ha [2, 13] was 60 to 74%. The pest or weed control at 35 g/ha [2, 14] was 95 to 100%, the pest or weed control at 70 g/ha [2, 14] was 95 to 100% and the pest or weed control at 140 g/ha [2, 14] was 95 to 100%.
`COC(=O)c1nc(-c2cc3c(cc2F)OC(F)(F)O3)c(F)c(N)c1Cl` [Compound 9] showed a pest or weed control at 35 g/ha [1, 3] of 85 to 94%, a pest or weed control at 70 g/ha [1, 3] of 85 to 94% and a pest or weed control at 140 g/ha [1, 3] of 85 to 94%. The pest or weed control at 35 g/ha [1, 4] was 75 to 84%, the pest or weed control at 70 g/ha [1, 4] was 85 to 94% and the pest or weed control at 140 g/ha [1, 4] was 95 to 100%. The pest or weed control at 35 g/ha [1, 5] was 0 to 29%, the pest or weed control at 70 g/ha [1, 5] was 0 to 29% and the pest or weed control at 140 g/ha [1, 5] was 0 to 29%. For the same compound, the pest or weed control at 35 g/ha [1, 6] was 85 to 94%, the pest or weed control at 70 g/ha [1, 6] was 85 to 94% and the pest or weed control at 140 g/ha [1, 6] was 95 to 100%. The pest or weed control at 35 g/ha [1, 7] was 75 to 84%, the pest or weed control at 70 g/ha [1, 7] was 85 to 94% and the pest or weed control at 140 g/ha [1, 7] was 95 to 100%. The pest or weed control at 35 g/ha [1, 8] was 75 to 84%, the pest or weed control at 70 g/ha [1, 8] was 85 to 94% and the pest or weed control at 140 g/ha [1, 8] was 85 to 94%. It also gave a pest or weed control at 35 g/ha [2, 9] of 85 to 94%, a pest or weed control at 70 g/ha [2, 9] of 85 to 94% and a pest or weed control at 140 g/ha [2, 9] of 95 to 100%. The pest or weed control at 35 g/ha [2, 10] was 45 to 59%, the pest or weed control at 70 g/ha [2, 10] was 60 to 74% and the pest or weed control at 140 g/ha [2, 10] was 75 to 84%. It also gave a pest or weed control at 35 g/ha [2, 11] of 60 to 74%, a pest or weed control at 70 g/ha [2, 11] of 60 to 74% and a pest or weed control at 140 g/ha [2, 11] of 75 to 84%. It also gave a pest or weed control at 35 g/ha [2, 12] of 0 to 29%, a pest or weed control at 70 g/ha [2, 12] of 0 to 29% and a pest or weed control at 140 g/ha [2, 12] of 0 to 29%. For the same compound, the pest or weed control at 35 g/ha [2, 13] was 30 to 44%, the pest or weed control at 70 g/ha [2, 13] was 45 to 59% and the pest or weed control at 140 g/ha [2, 13] was 60 to 74%. It also gave a pest or weed control at 35 g/ha [2, 14] of 95 to 100%, a pest or weed control at 70 g/ha [2, 14] of 95 to 100% and a pest or weed control at 140 g/ha [2, 14] of 95 to 100%.
Work on `COC(=O)c1nc(-c2cccc3c2OC(F)(F)O3)c(F)c(N)c1Cl` [Compound 73] yielded a pest or weed control at 35 g/ha [1, 3] of 95 to 100%, a pest or weed control at 70 g/ha [1, 3] of 95 to 100% and a pest or weed control at 140 g/ha [1, 3] of 95 to 100%. It also gave a pest or weed control at 35 g/ha [1, 4] of 85 to 94%, a pest or weed control at 70 g/ha [1, 4] of 95 to 100% and a pest or weed control at 140 g/ha [1, 4] of 95 to 100%. The pest or weed control at 35 g/ha [1, 5] was 95 to 100%, the pest or weed control at 70 g/ha [1, 5] was 95 to 100% and the pest or weed control at 140 g/ha [1, 5] was 95 to 100%. It also gave a pest or weed control at 35 g/ha [1, 6] of 75 to 84%, a pest or weed control at 70 g/ha [1, 6] of 85 to 94% and a pest or weed control at 140 g/ha [1, 6] of 95 to 100%. The pest or weed control at 35 g/ha [1, 7] was 75 to 84%, the pest or weed control at 70 g/ha [1, 7] was 75 to 84% and the pest or weed control at 140 g/ha [1, 7] was 85 to 94%. For the same compound, the pest or weed control at 35 g/ha [1, 8] was 0 to 29%, the pest or weed control at 70 g/ha [1, 8] was 0 to 29% and the pest or weed control at 140 g/ha [1, 8] was 0 to 29%. It also gave a pest or weed control at 35 g/ha [2, 9] of 0 to 29%, a pest or weed control at 70 g/ha [2, 9] of 0 to 29% and a pest or weed control at 140 g/ha [2, 9] of 0 to 29%. The pest or weed control at 35 g/ha [2, 10] was 0 to 29%, the pest or weed control at 70 g/ha [2, 10] was 0 to 29% and the pest or weed control at 140 g/ha [2, 10] was 0 to 29%. The pest or weed control at 35 g/ha [2, 11] was 0 to 29%, the pest or weed control at 70 g/ha [2, 11] was 0 to 29% and the pest or weed control at 140 g/ha [2, 11] was 0 to 29%. The pest or weed control at 35 g/ha [2, 12] was 0 to 29%, the pest or weed control at 70 g/ha [2, 12] was 0 to 29% and the pest or weed control at 140 g/ha [2, 12] was 0 to 29%. It also gave a pest or weed control at 35 g/ha [2, 13] of 0 to 29%, a pest or weed control at 70 g/ha [2, 13] of 0 to 29% and a pest or weed control at 140 g/ha [2, 13] of 0 to 29%. The pest or weed control at 35 g/ha [2, 14] was 0 to 29%, the pest or weed control at 70 g/ha [2, 14] was 45 to 59% and the pest or weed control at 140 g/ha [2, 14] was 45 to 59%.
